Measured values from US12319683B2, “Azabenzimidazole compounds and pharmaceutical” (NIPPON SHINYAKU CO., LTD., priority 2018, dated 2025).
Structures can show the parent of a compound that is named as a salt. Where two headings read alike, the source gives them in different places.

What was measured:
[1] = tested on: SD female rats; assay: Effect on the increase in intravesical pressure induced by electrical stimulation of the pelvic nerve in anesthetized rats; format: in vivo, rat; details: for change in vivo at 0.3 mg/kg: Rattus norvegicus, iv, 1 h, read-out: Percentage Change (%) Rc of AUC of increase of intravesical pressure (maximum during 1 hour after administration)
Protocol: For evaluation of in vivo effect on neurogenic bladder contraction, effects of the test compounds on the increase in intravesical pressure induced by electrical stimulation of the pelvic nerve in rats were determined according to the following method.
SD female rats (Japan SLC, Inc.) were anesthetized by subcutaneous administration of 1200 mg/kg of urethane (Wako Pure Chemical Corporation), and the lower abdomens of the rats were incised in the midline. After the ureters were ligated and cut at locations proximal to the bladder, a cannula (PE-60, BECTON DICKINSON) for cystometry was inserted into the bladder through the external urethral orifice and fixed with sutures. After injecting saline (about 200 μL) via the cannula inserted into the bladder, the other end of the cannula was connected to a pressure transducer to measure intravesical pressure.
The pelvic nerve near the urinary bladder of the rat was gently separated and dissected under stereomicroscope observation and attached to an electrode for nerve stimulation (K2-14015M-PT, BrainScience idea. Co., Ltd.). The peritoneal cavity of the rat was filled with liquid paraffin (26114-75, NACALAI TESQUE, INC.). After the postoperative rest period, an electrical stimulator (SEN-7203, NIHON KOHDEN CORPORATION) was used to stimulate the pelvic nerve to induce increase in intravesical pressure. The stimulation frequency was 8 Hz, the pulse width was 0.3 ms, and the stimulation time was 10 seconds. The voltage of the electrical stimulator was adjusted so that the increase in intravesical pressure was about 50-70% of that at stimulation with 10 V.
The electric stimulation was repeated with an interval of 10 minutes. After the increase of intravesical pressure induced by electric stimulation was stabilized three times or more, a test compound (dosage 0.3 mg/kg), distigmine bromide (dosage 0.03, 0.1 mg/kg) or a vehicle was intravenously administered at 1.0 mL/kg via the catheter placed into femoral vein. The effect of the test compound on increase of intravesical pressure was measured for 1 hour. Saline was used as a vehicle, and the test compound was dissolved in dimethyl sulfoxide before adding to the vehicle. The final concentration of dimethyl sulfoxide was 10%.
The response data (intravesical pressure) were recorded on a personal computer via data collection and analysis system (PowerLab®, ADInstruments) and analyzed using analysis software (LabChart®, ADInstruments). For each electric stimulation, AUC of increase of intravesical pressure (area under the curve of transition of intravesical pressure) was calculated, and percentage change Rc (unit: %) compared to the value (AUC) before the administration of the test compound was calculated according to the following equation (2). In the equation (2), Ab is AUC before administering a test compound, and Aa is AUC after administering a test compound. In addition, the maximum effect observed during 1 hour after administering the test compound (maximum percentage change Rc) was defined as the effect of the test compound. The higher percentage change Rc, the higher effect on enhancement of bladder contraction force and increase of intravesical pressure. Rc=100×(Aa−Ab)/Ab (2)

[2] = tested on: SD female rats; assay: as above; format: in vivo, rat; details: intravenous, 0.1 mg/kg
[3] = anesthetized SD female rats, pelvic nerve electrical stimulation, test compound 0.3 mg/kg intravenously

SMILES	change in vivo at 0.3 mg/kg [1, 3]	also measured
COCC1(CN(C)c2cc(-c3cc(F)cc(C(F)(F)F)c3)nc3nc(-c4cnc(N5CCN(CC(=O)O)CC5)cn4)[nH]c23)CCC1 [Example 37]	91.2%	
COCC1(CN(C)c2cc(-c3cc(C4CC4)nc(C(F)(F)F)c3)nc3nc(-c4cnc(N5CCC(OCC(=O)O)CC5)cn4)[nH]c23)CCCC1 [Example 4, {[1-(5-{5-[2-Cyclopropyl-6-(trifluoromethyl)pyridin-4-yl]-7-[{[1-(methoxymethyl)cyclopentyl]methyl}(methyl)amino]-1H-imidazo[4,5-b]pyridin-2-yl}pyrazin-2-yl)piperidin-4-yl]oxy}acetic acid]	123%	
COCC1(CN(C)c2cc(-c3cnc(C4CC4)c(C(F)(F)F)c3)nc3nc(-c4cnc(N5CCN(CCC(=O)O)C[C@H]5C)cn4)[nH]c23)CCCC1 [Example 20, Sodium 3-[(3R)-4-(5-{5-[6-Cyclopropyl-5-(trifluoromethyl)pyridin-3-yl]-7-[{[1-(methoxymethyl)cyclopentyl]methyl}(methyl)amino]-1H-imidazo[4,5-b]pyridin-2-yl}pyrazin-2-yl)-3-methylpiperazin-1-yl]propanoate]	249%	
CCOc1ncc(-c2cc(N(C)CC3(COC)CCCC3)c3[nH]c(-c4ccc(N5CCC(C(=O)O)CC5)cc4F)nc3n2)cc1C(F)(F)F [Example 68]	133%	
COCC1(CN(C)c2cc(-c3cnc(C4CC4)c(C(F)(F)F)c3)nc3nc(-c4cnc(N5CCN(CCC(=O)O)CC5)cn4)[nH]c23)CCCCC1 [Example 6, 3-[4-(5-{5-[6-Cyclopropyl-5-(trifluoromethyl)pyridin-3-yl]-7-[{[1-(methoxymethyl)cyclohexyl]methyl}(methyl)amino]-1H-imidazo[4,5-b]pyridin-2-yl}pyrazin-2-yl)piperazin-1-yl]propanoic acid]	571%	
COCC1(CN(C)c2cc(-c3cc(C4CC4)nc(C(F)(F)F)c3)nc3nc(-c4cnc(N5CCN(CCC(=O)O)C[C@H]5C)cn4)[nH]c23)CCCCC1 [Example 16, Sodium 3-[(3R)-4-(5-{5-[2-cyclopropyl-6-(trifluoromethyl)pyridin-4-yl]-7-[{[1-(methoxymethyl)cyclohexyl]methyl}(methyl)amino]-1H-imidazo[4,5-b]pyridin-2-yl}pyrazin-2-yl)-3-methylpiperazin-1-yl]propanoate]	182%	
CCOCC1(CN(C)c2cc(-c3cnc(C4CC4)c(C(F)(F)F)c3)nc3nc(-c4cnc(N5CCC(C(=O)O)CC5)cn4)[nH]c23)CCCC1 [Example 3, 1-(5-{5-[6-Cyclopropyl-5-(trifluoromethyl)pyridin-3-yl]-7-[{[1-(ethoxymethyl)cyclopentyl]methyl}(methyl)amino]-1H-imidazo[4,5-b]pyridin-2-yl}pyrazin-2-yl)piperidine-4-carboxylic acid]	311%	
CCOc1cc(-c2cc(N(C)CC(C)(C)COC)c3[nH]c(-c4cnc(N5CCC(C(=O)O)CC5)cn4)nc3n2)cc(C(F)(F)F)n1 [Example 1, 1-(5-{5-[2-Ethoxy-6-(trifluoromethyl)pyridin-4-yl]-7-[(3-methoxy-2,2-dimethylpropyl)(methyl)amino]-1H-imidazo[4,5-b]pyridin-2-yl}pyrazin-2-yl)piperidine-4-carboxylic acid]	326%	
COC[C@@H]1CN(c2cnc(-c3nc4nc(-c5cnc(C6CC6)c(C(F)(F)F)c5)cc(N(C)CC5(COC)CCCCC5)c4[nH]3)cn2)CCN1CCC(=O)O [Example 8, 3-[(2S)-4-(5-{5-[6-Cyclopropyl-5-(trifluoromethyl)pyridin-3-yl]-7-[{[1-(methoxymethyl)cyclohexyl]methyl}(methyl)amino]-1H-imidazo[4,5-b]pyridin-2-yl}pyrazin-2-yl)-2-(methoxymethyl)piperazin-1-yl]propanoic acid]	374%	
COCC1(CN(C)c2cc(-c3cnc(C4CC4)c(C(F)(F)F)c3)nc3nc(-c4ccc(OC5CCN(CC(=O)O)CC5)cc4F)[nH]c23)CCCC1 [Example 10, [4-(4-{5-[6-Cyclopropyl-5-(trifluoromethyl)pyridin-3-yl]-7-[{[1-(methoxymethyl)cyclopentyl]methyl}(methyl)amino]-1H-imidazo[4,5-b]pyridin-2-yl}-3-fluorophenoxy)piperidin-1-yl]acetic acid]	82.6%	
CCOc1cc(-c2cc(N(C)CC3(COC)CCCC3)c3[nH]c(-c4cnc(N5CCC(C(=O)O)CC5)cn4)nc3n2)cc(C(F)(F)F)n1 [Example 2, 1-(5-{5-[2-Ethoxy-6-(trifluoromethyl)pyridin-4-yl]-7-[{[1-(methoxymethyl)cyclopentyl]methyl}(methyl)amino]-1H-imidazo[4,5-b]pyridin-2-yl}pyrazin-2-yl)piperidine-4-carboxylic acid]	331%	
COCC1(CN(C)c2cc(-c3cnc(C4CC4)c(C(F)(F)F)c3)nc3nc(-c4cnc(N5CCN(CCC(=O)O)C[C@H]5C)cn4)[nH]c23)CCCCC1 [Example 7, 3-[(3R)-4-(5-{5-[6-Cyclopropyl-5-(trifluoromethyl)pyridin-3-yl]-7-[{[1-(methoxymethyl)cyclohexyl]methyl}(methyl)amino]-1H-imidazo[4,5-b]pyridin-2-yl}pyrazin-2-yl)-3-methylpiperazin-1-yl]propanoic acid]	608%	
CCOc1cc(-c2cc(N(C)CC3(COC)CCCC3)c3[nH]c(-c4cnc(N5[C@@H]6CC[C@H]5C[C@@H](OCC(=O)O)C6)cn4)nc3n2)cc(C(F)(F)F)n1 [Example 15, Sodium {[(1R,3r,5S)-8-(5-{5-[2-ethoxy-6-(trifluoromethyl)pyridin-4-yl]-7-[{[1-(methoxymethyl)cyclopentyl]methyl}(methyl)amino]-1H-imidazo[4,5-b]pyridin-2-yl}pyrazin-2-yl)-8-azabicyclo[3.2.1]octan-3-yl]oxy}acetate]		change in vivo at 0.3 mg/kg [1]: 276%
COCC1(CN(C)c2cc(-c3cc(F)cc(C(F)(F)F)c3)nc3nc(-c4cnc(N5CCC(F)(C(=O)O)CC5)cn4)[nH]c23)CCC1 [Example 38]	98.1%	
CCOc1cc(-c2cc(N(C)CC3(COC)CCC3)c3[nH]c(-c4cnc(N5CCC(C(=O)O)CC5)cn4)nc3n2)cc(C(F)(F)F)n1 [Example 11, 1-(5-{5-[2-Ethoxy-6-(trifluoromethyl)pyridin-4-yl]-7-[{[1-(methoxymethyl)cyclobutyl]methyl}(methyl)amino]-1H-imidazo[4,5-b]pyridin-2-yl}pyrazin-2-yl)piperidine-4-carboxylic acid dihydrochloride]	270%	
CCOc1ncc(-c2cc(N(C)CC3(COC)CCC3)c3[nH]c(-c4cnc(N5CCC(C(=O)O)CC5)cn4)nc3n2)cc1C(F)(F)F [Example 42]	119%	
CCOCC1(CN(C)c2cc(-c3cnc(C4CC4)c(C(F)(F)F)c3)nc3nc(-c4cnc(N5CCN(CCC(=O)O)C[C@H]5C)cn4)[nH]c23)CCCC1 [Example 14, Sodium 3-[(3R)-4-(5-{5-[6-cyclopropyl-5-(trifluoromethyl)pyridin-3-yl]-7-[{[1-(ethoxymethyl)cyclopentyl]methyl}(methyl)amino]-1H-imidazo[4,5-b]pyridin-2-yl}pyrazin-2-yl)-3-methylpiperazin-1-yl]propanoate]	400%	
CN(CCCCCCN(C)C(=O)Oc1ccc[n+](C)c1)C(=O)Oc1ccc[n+](C)c1 [distigmine bromide, reference compound]		nicotinic side effect (fasciculation) [2]: observed; enhancement effect on bladder contractility ([1]; anesthetized rats, intravenous, test compound 0.3 mg/kg, distigmine bromide 0.03, 0.1 mg/kg, electrical stimulation of pelvic nerve): showed enhancement of bladder contractility
